# Values of other authors as cited in patent US6756047B2, “Method and compositions for treating persistent pulmonary hypertension using aralkyl ester soft drugs” (The University of Toledo, priority 2000, dated 2004).
# Legend:
# [1] = eye examination use
# [2] = long duration of action; used clinically
Compound,duration [1],half-life (duration of action) [2]
"CN1[C@@H]2CC[C@H]1C[C@@H](OC(=O)C(CO)c1ccccc1)C2 (some centres unmarked) [Atropine, atropine]",several hour,–
"CC(C)NCC(O)COc1cccc2ccccc12 (centres unmarked) [Structure 1, propranolol]",–,several hour
